Tests used:
[1] = test system: A-431; test: in vitro killing activity; type: cell-based, Human; conditions: Homo sapiens, A-431; 120 time of incubation
Description: (§1) Different concentrations of compounds CPT-1, CPT-2, CPT-3, CPT-4, Dxd (MedChem Express, Cat #: HY-13631D) and SN38 (MedChem Express, Cat #: HY-13704) were used to treat different human tumor cell lines, mice tumor cell lines, rat tumor cell lines or dog tumor cell lines cultured in a cell culture plate, respectively. And the killing activity was detected after 72 h-120 h incubation by IncuCyte (Sartorius AG, IncuCyte® S3) or MicroplateReader.

[2] = test system: BT474; test: in vitro killing activity; type: cell-based, Human; conditions: Homo sapiens, BT-474; 120 time of incubation
Description: as §1

[3] = test system: BxPC-3; test: in vitro killing activity; type: cell-based, Human; conditions: Homo sapiens, BXPC-3; 120 time of incubation
Description: as §1

[4] = test system: HCC1954; test: in vitro killing activity; type: cell-based, Human; conditions: Homo sapiens, HCC1954; 120 time of incubation
Description: as §1

[5] = test system: HS-746T; test: in vitro killing activity; type: cell-based, Human; conditions: Homo sapiens, Hs746T; 120 time of incubation
Description: as §1

[6] = test system: Hela; test: in vitro killing activity; type: cell-based, Human; conditions: Homo sapiens, HeLa; 120 h incubation
Description: as §1

[7] = test system: HuH-7; test: in vitro killing activity; type: cell-based, Human; conditions: Homo sapiens, Huh-7; 120 h incubation
Description: as §1

[8] = test system: LOVO; test: in vitro killing activity; type: cell-based, Human; conditions: Homo sapiens, LoVo; 120 h incubation
Description: as §1

[9] = test system: NCI-H1781; test: in vitro killing activity; type: cell-based, Human; conditions: Homo sapiens, NCI-H1781; 120 time of incubation
Description: as §1

[10] = test system: NCI-H1975; test: in vitro killing activity; type: cell-based, Human; conditions: Homo sapiens, NCI-H1975; 120 time of incubation
Description: as §1

[11] = test system: NCI-H2030; test: in vitro killing activity; type: cell-based, Human; conditions: Homo sapiens, NCI-H2030; 120 time of incubation
Description: as §1

[12] = test system: NCI-H226; test: in vitro killing activity; type: cell-based, Human; conditions: Homo sapiens, NCI-H226; 120 h incubation
Description: as §1

[13] = test system: NCI-H69; test: in vitro killing activity; type: cell-based, Human; conditions: Homo sapiens, NCI-H69; 120 time of incubation
Description: as §1

[14] = test system: NCI-N87; test: in vitro killing activity; type: cell-based, Human; conditions: Homo sapiens, NCI-N87; 120 time of incubation
Description: as §1

[15] = test system: OVKATE; test: in vitro killing activity; type: cell-based, Human; conditions: Homo sapiens; 120 time of incubation
Description: as §1

[16] = test system: PC-3; test: in vitro killing activity; type: cell-based, Human; conditions: Homo sapiens, PC-3; 120 time of incubation
Description: as §1

[17] = test system: Panc 02.03; test: in vitro killing activity; type: cell-based, Human; conditions: Homo sapiens, Panc 02.03; 120 time of incubation
Description: as §1

[18] = test system: SKOV-3; test: in vitro killing activity; type: cell-based, Human; conditions: Homo sapiens, SK-OV-3; 120 time of incubation
Description: as §1

[19] = test system: SW156; test: in vitro killing activity; type: cell-based, Human; conditions: Homo sapiens; 120 time of incubation
Description: as §1

[20] = test system: SW620; test: in vitro killing activity; type: cell-based, Human; conditions: Homo sapiens, SW-620; 120 h incubation
Description: as §1

[21] = test system: U-2-OS; test: in vitro killing activity; type: cell-based, Human; conditions: Homo sapiens, U2OS; 120 time of incubation
Description: as §1

[22] = test system: CMT-U27; test: in vitro killing activity; type: cell-based, Dog; conditions: Canis lupus familiaris; 120 time of incubation
Description: as §1

[23] = test system: D17; test: in vitro killing activity; type: cell-based, Dog; conditions: Canis lupus familiaris, D17; 120 time of incubation
Description: as §1

[24] = test system: DCOL1 (S+L−); test: in vitro killing activity; type: cell-based, Dog; conditions: Canis lupus familiaris; 120 time of incubation
Description: as §1

[25] = test system: MP-0094-2; test: in vitro killing activity; type: cell-based, Dog; conditions: Canis lupus familiaris; 120 time of incubation
Description: as §1

[26] = test system: MP-0094-3; test: in vitro killing activity; type: cell-based, Dog; conditions: Canis lupus familiaris; 120 time of incubation
Description: as §1

[27] = test system: MP-1044-1; test: in vitro killing activity; type: cell-based, Dog; conditions: Canis lupus familiaris; 72 time of incubation
Description: as §1

[28] = test system: MP-1092-1; test: in vitro killing activity; type: cell-based, Dog; conditions: Canis lupus familiaris; 120 time of incubation
Description: as §1

[29] = test system: B16F10; test: in vitro killing activity; type: cell-based, Mice; conditions: Mus musculus, B16-F10; 75 time of incubation
Description: as §1

[30] = test system: CT26; test: in vitro killing activity; type: cell-based, Mice; conditions: Mus musculus, CT26; 96 time of incubation
Description: as §1

[31] = test system: MC38; test: in vitro killing activity; type: cell-based, Mice; conditions: Mus musculus, MC-38; 120 time of incubation
Description: as §1

[32] = test system: L6; test: in vitro killing activity; type: cell-based, Rat; conditions: Rattus norvegicus, L6; 120 h incubation
Description: as §1

[33] = test system: PC12; test: in vitro killing activity; type: cell-based, Rat; conditions: Rattus norvegicus, PC-12; 120 time of incubation
Description: as §1

[34] = test system: multiple cell lines; test: in vitro killing activity, multiple tumor cell lines; type: cell-based, human, mice, rat, dog
Description: as §1

| Structure (SMILES) | IC50 [1] [nM] | IC50 [2] [nM] | IC50 [3] [nM] | IC50 [4] [nM] | IC50 [5] [nM] | IC50 [6] [nM] | IC50 [7] [nM] | IC50 [8] [nM] | IC50 [9] [nM] | IC50 [10] [nM] | IC50 [11] [nM] | IC50 [12] [nM] | IC50 [13] [nM] | IC50 [14] [nM] | IC50 [15] [nM] | IC50 [16] [nM] | IC50 [17] [nM] | IC50 [18] [nM] | IC50 [19] [nM] | IC50 [20] [nM] | also measured |
| --- | --- | --- | --- | --- | --- | --- | --- | --- | --- | --- | --- | --- | --- | --- | --- | --- | --- | --- | --- | --- | --- |
| CC[C@@]1(O)C(=O)OCc2c1cc1n(c2=O)Cc2c-1nc1ccc(N)c3c1c2CCO3 [CPT-2, (S)-4-amino-9-ethyl-9-hydroxy-1,9,12,15-tetrahydro-13H-pyrano[4,3,2-de]pyrano[3′,4′:6,7]indolizino[1,2-b]quinoline-10,13(2H)-dione] | 2.84 | 11.9 | 0.289 | 1.14 | 0.55 | 1.41 | 0.662 | 1.15 | 0.399 | 1.97 | 1.31 | 2.77 | 0.318 | 1.48 | 2.04 | 1.97 | 0.301 | 1.96 | 0.615 | 0.824 | IC50 [21]: 1.41 nM; IC50 [22]: 1.28 nM; IC50 [23]: 1.29 nM; IC50 [24]: 2.29 nM; IC50 [25]: 4.69 nM; IC50 [26]: 7.15 nM; IC50 [27]: 8.53 nM; IC50 [28]: 1.75 nM; IC50 [29]: 5.47 nM; IC50 [30]: 5.63 nM; IC50 [31]: 9.57 nM; IC50 [32]: 3.88 nM; IC50 [33]: 1.77 nM; in vitro killing activity [34]: good in vitro killing activity; tumor cell inhibition effect compared with Dxd and SN38 [34]: higher tumor cell inhibition effect than Dxd and SN38 |
| CC[C@@]1(O)C(=O)OCc2c1cc1n(c2=O)Cc2c-1nc1ccc(N)c3c1c2CCS3 [CPT-1] | 2.97 | 6.22 | 0.213 | 1.31 | 0.523 | 1.03 | 0.742 | 1.52 | 0.297 | 1.71 | 1.1 | 2.37 | 0.299 | 1.2 | 2.24 | 0.859 | 0.266 | 1.8 | 0.373 | 0.75 | IC50 [21]: 2.65 nM; IC50 [22]: 0.937 nM; IC50 [23]: 0.841 nM; IC50 [24]: 1.33 nM; IC50 [25]: 2.69 nM; IC50 [26]: 3.92 nM; IC50 [27]: 8.63 nM; IC50 [28]: 0.988 nM; IC50 [29]: 3.29 nM; IC50 [30]: 3.84 nM; IC50 [31]: 6.72 nM; IC50 [32]: 3.69 nM; IC50 [33]: 1.67 nM; in vitro killing activity [34]: good in vitro killing activity; tumor cell inhibition effect compared with Dxd and SN38 [34]: higher tumor cell inhibition effect than Dxd and SN38 |
